Experimental data reported in patent publication US11718618B2, “Substituted pyrido[2,1-a]isoquinolines as VMAT2 inhibitors” (priority 2021, dated 2023).

Legend:
VMAT2 = details: Scherman et al. 1983; read-out: IC50, inhibition of catecholamine uptake by VMAT2; cited from earlier work
[1] = Stability of compounds in human liver microsomes; assay type: in vitro ADME; details: for CLint scaled at 0.5 μM / half-life at 0.5 μM: both sexes, pH 7.4; for CLint scaled at 0.5 μM: liver microsomes, calculated from HLM half-life, read-out: HLM Scaled Intrinsic Clearance; for CLint scaled at 0.5 μM / Predicted Max. Bioavailability (% F) / HLM Predicted Systemic Clearance: human; for half-life at 0.5 μM: 0.5 μM compound, 0.5 mg/mL human liver microsomes, 37° C., maxed at 420 minutes, read-out: HLM Elimination half-life (t1/2, min); for Predicted Max. Bioavailability (% F): predicted from HLM data; for HLM Predicted Systemic Clearance: scaled from HLM half-life (Obach method)
In short: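 Compound at 0.5 μM incubated at 37 °C with pooled mixed-gender human liver microsomes (0.5 mg/mL protein) and an NADPH-generating system in pH 7.4 phosphate buffer, sampled 0–60 min. Parent depletion tracked by LC-MS/MS; t1/2 derived from the slope by non-linear regression, with predicted extraction ratio and maximum bioavailability also calculated.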

human VMAT2 = human VMAT2 (Homo sapiens (Human), UniProt Q05940); experiment: VMAT2 radioligand binding, 3H-dihydrotetrabenazine competition on human platelet homogenate; details: 10 nM 3H-dihydrotetrabenazine, human platelet homogenate, 25° C., 90 minutes; read-out: VMAT2 Ki
In short: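 Human platelet homogenate (30 μg membrane protein/well) in DPBS with 1 mM EDTA, pH 7.4; twelve test-compound concentrations competed against 10 nM ³H-dihydrotetrabenazine. Incubated 90 min at 25 °C, bound radioligand collected by filtration on PEI-pretreated glass-fibre filters and counted by scintillation; Ki derived.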

male Wistar rats = experiment: Conditioned avoidance response (CAR) assay of antipsychotic activity; assay type: in vivo, rat; details: for Avoidance and escape failures: 0.3 mg/kg, oral, Wistar rats; for ED50: Rattus norvegicus, read-out: ED50, conditioned avoidance response
Experimental: Animals: Adult male Wistar rats from Envigo (Indianapolis, Ind.) were used in this study. Rats were received at approximately 150 g, assigned unique identification numbers and group housed 2-3 per cage in ventilated cages. All rats were examined, handled, and weighed prior to initiation of the study to assure adequate health and suitability. During the course of the study, 12/12 light/dark cycles were maintained. The RT was maintained between 20° C. and 23° C. with a relative humidity around 50%. Chow and water were provided ad libitum for the duration of the study. All testing was conducted during the light cycle of the rats.
Compound 4-1 (0.03, 0.1, 0.3, and 1 mg/kg) was formulated in 0.25% methyl cellulose and administered orally at a dose volume of 3 mL/kg 120 minutes prior to test.
Compound 4-15 (0.03, 0.1, 0.3, and 1 mg/kg) was formulated in 0.25% methyl cellulose and administered orally at a dose volume of 3 mL/kg 120 minutes prior to test.
In the CAR paradigm, an animal is trained to respond to a conditioned stimulus (auditory and visual) by negative reinforcement (foot shock). Numerous studies have shown that typical and atypical antipsychotic drugs selectively suppress CAR, thus making it an ideal assay to screen potential antipsychotic compounds (Wadenberg & Hicks, Neuroscience and Biobehavioral Reviews, (1999) 23:851-862).
Rats were placed in the CAR two-way shuttle box and the training period of 20 trials ensued. A trial consisted of a 10-sec presentation of an 80 dB white noise followed by a scrambled 0.6 mA foot shock lasting up to 20 sec. The inter-trial interval ranged from 20-60 sec. The rat learned to avoid shock by moving from one compartment to the other when the cue is presented. […] The following measures were captured from the assay:
Avoidance response: If the rat moved from one compartment to the other during the cued-stimulus (CS) presentation. Decreased avoidance responding is the typical signature of an efficacious dose of an antipsychotic.
Avoidance response data were expressed as the number of avoidance responses as well as percent of avoidance responses based on the three baseline responses prior to drug test. Escape failures were expressed as the total number of failures during the test session.
Body weight and avoidance data were analyzed by analysis of variance (ANOVA) followed by Dunnett's post-hoc comparisons when appropriate. Escape failures were analyzed by Kruskal-Wallis nonparametric analysis followed by Dunn's post hoc comparisons when appropriate. Results are reported as mean SEM. An effect was considered statistically significant if p<0.05.

male Sprague-Dawley rats = experiment: Open-field hypolocomotion / locomotor activity (LMA) assay; assay type: in vivo; details: Rattus norvegicus, pre-treatment 60 or 120 minutes, beam breaks in 30 min, read-out: ED50, reduction of locomotor activity
Experimental: The effect of VMAT2 inhibitors on dopamine depletion was measured using the locomotor activity (LMA) assay. Following a pre-treatment time of 60 or 120 minutes, male Sprague-Dawley rats (200-250 g) were placed in a clear cage surrounded by photocell detectors (San Diego Instruments). Rat locomotor activity was detected by breaks in the photocell beams and activity is defined as the number of beam breaks in 30 min. Data was analyzed by one-way analysis of variance (ANOVA; SigmaStat version 3.0.1, SPSS, Chicago, Ill.) followed by the Student Newman Keuls post-hoc test for significance.

[2] = once formed, in patients administered (±)-TBZ; cited from earlier work

human VMAT2, sequence (Q05940 whole entry): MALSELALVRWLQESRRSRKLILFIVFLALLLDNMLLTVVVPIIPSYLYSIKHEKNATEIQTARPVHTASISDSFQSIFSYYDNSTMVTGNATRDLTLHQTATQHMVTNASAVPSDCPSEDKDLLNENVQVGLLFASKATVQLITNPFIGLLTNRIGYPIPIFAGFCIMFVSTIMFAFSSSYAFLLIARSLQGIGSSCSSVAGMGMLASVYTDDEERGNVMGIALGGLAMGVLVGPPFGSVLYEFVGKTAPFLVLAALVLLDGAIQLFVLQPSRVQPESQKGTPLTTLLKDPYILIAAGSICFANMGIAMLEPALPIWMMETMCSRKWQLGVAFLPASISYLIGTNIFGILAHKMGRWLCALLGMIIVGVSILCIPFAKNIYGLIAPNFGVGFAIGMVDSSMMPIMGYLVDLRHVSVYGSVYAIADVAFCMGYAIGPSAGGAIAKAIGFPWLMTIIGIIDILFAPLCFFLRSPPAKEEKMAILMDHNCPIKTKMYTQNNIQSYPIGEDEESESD

Compound: COc1cc2c(cc1OCC(F)(F)F)CCN1C[C@@H](CC(C)(C)C)[C@H](O)C[C@H]21 [Compound 4-1, (2R,3R,11bR)-3-(2,2-dimethylpropyl)-10-methoxy-9-(2,2,2-trifluoroethoxy)-1H,2H,3H,4H,6H,7H,11bH-pyrido[2,1-a]isoquinolin-2-ol]
- CLint scaled at 0.5 μM [1]: ≤ 2.97 mL/min/kg
- half-life at 0.5 μM [1]: ≥ 420 min
- Predicted Max. Bioavailability (% F) [1]: ≥87 % F
- HLM Predicted Systemic Clearance [1]: ≤2.59 mL/min/kg
- Ki (human VMAT2): 2.4 nM
- Avoidance and escape failures (male Wistar rats): reduction in avoidance without significant increase in escape failures
- ED50 (male Wistar rats): 0.55 mg/kg
- ED50 (male Sprague-Dawley rats): 0.24 mg/kg

Compound: COc1cc2c(cc1OCCC(F)(F)F)CCN1C[C@@H](CC(C)(C)C)[C@H](O)C[C@H]21 [Compound 4-15, (2R,3R,11bR)-3-(2,2-dimethylpropyl)-10-methoxy-9-(3,3,3-trifluoropropoxy)-1H,2H,3H,4H,6H,7H,11bH-pyrido[2,1-a]isoquinolin-2-ol]
- CLint scaled at 0.5 μM [1]: 4.05 mL/min/kg
- half-life at 0.5 μM [1]: 308 min
- Predicted Max. Bioavailability (% F) [1]: 83 % F
- HLM Predicted Systemic Clearance [1]: 3.37 mL/min/kg
- Ki (human VMAT2): 1.1 nM
- Avoidance and escape failures (male Wistar rats): reduction in avoidance without significant increase in escape failures
- ED50 (male Wistar rats): 0.44 mg/kg
- ED50 (male Sprague-Dawley rats): 0.18 mg/kg

Compound: COc1cc2c(cc1OC1CC1)CCN1C[C@@H](CC(C)(C)C)[C@H](O)C[C@H]21 [Compound 4-27, (2R,3R,11bR)-9-cyclopropoxy-3-(2,2-dimethylpropyl)-10-methoxy-1H,2H,3H,4H,6H,7H,11bH-pyrido[2,1-a]isoquinolin-2-ol]
- CLint scaled at 0.5 μM [1]: ≤ 2.97 mL/min/kg
- half-life at 0.5 μM [1]: ≥ 420 min
- Predicted Max. Bioavailability (% F) [1]: ≥87 % F
- HLM Predicted Systemic Clearance [1]: ≤2.59 mL/min/kg
- Ki (human VMAT2): 1 nM
- ED50 (male Sprague-Dawley rats): 0.14 mg/kg

Compound: COc1cc2c(cc1OCC1(F)CC1)CCN1C[C@@H](CC(C)(C)C)[C@H](O)C[C@H]21 [Compound 4-31, (2R,3R,11bR)-3-(2,2-dimethylpropyl)-9-[(1-fluorocyclopropyl)methoxy]-10-methoxy-1H,2H,3H,4H,6H,7H,11bH-pyrido[2,1-a]isoquinolin-2-ol]
- CLint scaled at 0.5 μM [1]: ≤ 2.97 mL/min/kg
- half-life at 0.5 μM [1]: ≥ 420 min
- Predicted Max. Bioavailability (% F) [1]: ≥87 % F
- HLM Predicted Systemic Clearance [1]: ≤2.59 mL/min/kg
- Ki (human VMAT2): 1.6 nM
- ED50 (male Sprague-Dawley rats): 0.31 mg/kg

Compound: COc1cc2c(cc1OC[C@H](O)C(F)(F)F)CCN1C[C@@H](CC(C)(C)C)[C@H](O)C[C@H]21 [Compound 4-50, (2R,3R,11bR)-3-(2,2-dimethylpropyl)-10-methoxy-9-[(2S)-3,3,3-trifluoro-2-hydroxypropoxy]-1H,2H,3H,4H,6H,7H,11bH-pyrido[2,1-a]isoquinolin-2-ol]
- CLint scaled at 0.5 μM [1]: ≤ 2.97 mL/min/kg
- half-life at 0.5 μM [1]: ≥ 420 min
- Predicted Max. Bioavailability (% F) [1]: ≥87 % F
- HLM Predicted Systemic Clearance [1]: ≤2.59 mL/min/kg
- Ki (human VMAT2): 1.4 nM
- ED50 (male Sprague-Dawley rats): 0.21 mg/kg

Compound: COc1cc2c(cc1OC[C@@H](C)O)CCN1C[C@@H](CC(C)(C)C)[C@H](O)C[C@H]21 [Compound 4-55, (2R,3R,11bR)-3-(2,2-dimethylpropyl)-9-[(2R)-2-hydroxypropoxy]-10-methoxy-1H,2H,3H,4H,6H,7H,11bH-pyrido[2,1-a]isoquinolin-2-ol]
- CLint scaled at 0.5 μM [1]: ≤ 2.97 mL/min/kg
- half-life at 0.5 μM [1]: ≥ 420 min
- Predicted Max. Bioavailability (% F) [1]: ≥87 % F
- HLM Predicted Systemic Clearance [1]: ≤2.59 mL/min/kg
- Ki (human VMAT2): 4.8 nM
- ED50 (male Sprague-Dawley rats): 0.29 mg/kg

Compound: COc1cc2c(cc1OCC1(F)CC1)CCN1C[C@@H](CC(C)(C)C)[C@@H](O)C[C@H]21 [Compound 4-118, (2S,3R,11bR)-3-(2,2-dimethylpropyl)-9-[(1-fluorocyclopropyl)methoxy]-10-methoxy-1H,2H,3H,4H,6H,7H,11bH-pyrido[2,1-a]isoquinolin-2-ol]
- CLint scaled at 0.5 μM [1]: 6.6 mL/min/kg
- half-life at 0.5 μM [1]: 189 min
- Predicted Max. Bioavailability (% F) [1]: 75 % F
- HLM Predicted Systemic Clearance [1]: 4.96 mL/min/kg
- Ki (human VMAT2): 13 nM

Compound: COc1cc2c(cc1OCC1CCC1)CCN1C[C@@H](CC(C)(C)C)[C@H](O)C[C@H]21 [Compound 4-119, (2R,3R,11bR)-9-(cyclobutylmethoxy)-3-(2,2-dimethylpropyl)-10-methoxy-1H,2H,3H,4H,6H,7H,11bH-pyrido[2,1-a]isoquinolin-2-ol]
- CLint scaled at 0.5 μM [1]: 134 mL/min/kg
- half-life at 0.5 μM [1]: 9 min
- Predicted Max. Bioavailability (% F) [1]: 13.00 % F
- HLM Predicted Systemic Clearance [1]: 17.4 mL/min/kg
- Ki (human VMAT2): 0.29 nM

Compound: COc1cc2c(cc1OCCCC(F)(F)F)CCN1C[C@@H](CC(C)(C)C)[C@H](O)C[C@H]21 [Compound 4-120, (2R,3R,11bR)-3-(2,2-dimethylpropyl)-10-methoxy-9-(4,4,4-trifluorobutoxy)-1H,2H,3H,4H,6H,7H,11bH-pyrido[2,1-a]isoquinolin-2-ol]
- CLint scaled at 0.5 μM [1]: ≤ 2.97 mL/min/kg
- half-life at 0.5 μM [1]: ≥ 420 min
- Predicted Max. Bioavailability (% F) [1]: ≥87 % F
- HLM Predicted Systemic Clearance [1]: ≤2.59 mL/min/kg
- Ki (human VMAT2): 1.5 nM

Compound: COc1cc2c(cc1OCC1CC1(F)F)CCN1C[C@@H](CC(C)(C)C)[C@H](O)C[C@H]21 (stereo partly drawn) [Compound 4-121, (2R,3R,11bR)-9-[(2,2-difluorocyclopropyl)methoxy]-3-(2,2-dimethylpropyl)-10-methoxy-1H,2H,3H,4H,6H,7H,11bH-pyrido[2,1-a]isoquinolin-2-ol]
- CLint scaled at 0.5 μM [1]: 4.46 mL/min/kg
- half-life at 0.5 μM [1]: 280 min
- Predicted Max. Bioavailability (% F) [1]: 82 % F
- HLM Predicted Systemic Clearance [1]: 3.64 mL/min/kg
- Ki (human VMAT2): 0.82 nM

Compound: COc1cc2c(cc1OC)[C@H]1C[C@@H](O)[C@H](CC(C)(C)C)CN1CC2 [Compound 5-1, (2R,3R,11bR)-3-(2,2-dimethylpropyl)-9,10-dimethoxy-1H,2H,3H,4H,6H,7H,11bH-pyrido[2,1-a]isoquinolin-2-ol]
- CLint scaled at 0.5 μM [1]: 15.6 mL/min/kg
- half-life at 0.5 μM [1]: 80 min
- Predicted Max. Bioavailability (% F) [1]: 56 % F
- HLM Predicted Systemic Clearance [1]: 8.77 mL/min/kg
- Ki (human VMAT2): 6.6 nM

Compound: COc1cc2c(cc1OC)[C@H]1C[C@H](O)[C@H](CC(C)(C)C)CN1CC2 [Compound 5-2, (2S,3R,11bR)-3-(2,2-dimethylpropyl)-9,10-dimethoxy-1H,2H,3H,4H,6H,7H,11bH-pyrido[2,1-a]isoquinolin-2-ol]
- CLint scaled at 0.5 μM [1]: 32.6 mL/min/kg
- half-life at 0.5 μM [1]: 38 min
- Predicted Max. Bioavailability (% F) [1]: 38 % F
- HLM Predicted Systemic Clearance [1]: 12.39 mL/min/kg
- Ki (human VMAT2): 50 nM

Compound: COc1cc2c(cc1OC)C1CC(O)C(CC(C)C)CN1CC2 (stereo not drawn) [[+]-beta-DHTBZ, 3-isobutyl-9,10-dimethoxy-1,3,4,6,7,11b-hexahydro-2H-pyrido[2,1-a]isoquinolin-2-ol]
- half-life [2]: approximately 5 hours
